One may read the IC50 as the concentration that inhibits the measured activity by half. The term inhibition denotes the share of the control response that was lost under treatment.

Here are results for 29 compounds from patent US20120004244A1, “Bis Aromatic Compounds for Use as LTC4 Synthase Inhibitors” (BIOLIPOX AB, priority 2009, published 2012).

One assay has as its target T1, Recombinant human LTC4 synthase (Homo sapiens, UniProt Q16873).
T1 construct: made in house; host or cells: Pichia pastoris ('Piccia pastoralis' [sic])
T1 sequence (Q16873 1-150): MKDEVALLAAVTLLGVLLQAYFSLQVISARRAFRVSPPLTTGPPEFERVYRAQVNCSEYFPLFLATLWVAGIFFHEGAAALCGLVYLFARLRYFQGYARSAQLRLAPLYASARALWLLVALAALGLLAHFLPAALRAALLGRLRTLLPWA
Kind of assay: LTC4 synthase in vitro assay (LTA4 to LTC4, HTRF detection). The assay is classed as biochemical.
Settings: not given
In short, it runs like this: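 Purified recombinant human LTC4 synthase expressed in Pichia (0.5 μg/mL total protein) was preincubated with inhibitor at 10 μM final for 10 min at room temperature in PBS pH 7.4 with 5 mM GSH. LTA4 was then added at 2.5 μM final, and after 5 min at room temperature LTC4 was detected by HTRF.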
A general note: Time-resolved FRET reads energy transfer from a long-lived donor to a nearby acceptor.
On to `CN(c1ccc(Cl)cc1)c1ccc(C(=O)c2ccc(OCc3ccc(F)c(F)c3)c(C(=O)O)c2)nc1` [12:4, 5-{5-[(4-Chlorophenyl)(methyl)amino]picolinoyl}-2-(3,4-difluorobenzyloxy)-benzoic acid], for which the IC50 was determined as 150 nM.

Take `CN(c1ccc(Cl)cc1)c1ccc(C(=O)c2ccc(OCc3ccc4c(c3)OCO4)c(C(=O)O)c2)nc1` [12:5, 5-{5-[(4-Chlorophenyl)(methyl)amino]picolinoyl}2-(3,4-methylenedioxy-benzyloxy)benzoic acid]: the IC50 turned out to be 166 nM. On the same count and under the same terms, the result for `COc1cccc(COc2ccc(C(=O)c3ccc(N(C)c4ccc(Cl)cc4)cn3)cc2C(=O)O)c1` [12:6, 5-{5-[(4-Chlorophenyl)(methyl)amino]picolinoyl}-2-(3-methoxybenzyloxy)-benzoic acid] reads 219 nM.

`CN(c1ccc(Cl)cc1)c1ccc(C(=O)c2ccc(OCc3ccccc3)c(C(=O)O)c2)nc1` [12:7, 2-Benzyloxy-5-{5-[(4-chlorophenyl)(methyl)amino]picolinoyl}benzoic acid]: the IC50 was found to be 375 nM. `CN(c1ccc(Cl)cc1)c1ccc(C(=O)c2ccc(-n3nncc3-c3ccccc3)c(C(=O)O)c2)nc1` [17:1, 5-{5-[(4-Chlorophenyl)(methyl)amino]picolinoyl}-2-(5-phenyl-1,2,3-triazol-1-yl)-benzoic acid]: the IC50 is 116 nM.

`O=C(c1ccc(-n2nncc2-c2ccccc2)c(C(=O)O)c1)c1ccc(N(CC2CC2)c2ccc(Cl)cc2)cn1` [17:3, 5-{5-[(4-Chlorophenyl)(cyclopropylmethyl)amino]picolinoyl}-2-(5-phenyl-1,2,3-triazol-1-yl)benzoic acid]: the IC50 was 45 nM. As for `O=C(c1ccc(-n2nncc2-c2cccc(Cl)c2)c(C(=O)O)c1)c1ccc(N(CC2CC2)c2ccc(Cl)cc2)cn1` [17:4, 5-{5-[(4-Chlorophenyl)(cyclopropylmethyl)amino]picolinoyl}-2-(5-(3-chlorophenyl)-1,2,3-triazol-1-yl)benzoic acid], the IC50 came out at 16 nM. As to `O=C(c1ccc(-n2nncc2-c2ccc(F)cc2)c(C(=O)O)c1)c1ccc(N(CC2CC2)c2ccc(Cl)cc2)cn1` [17:5, 5-{5-[(4-Chlorophenyl)(cyclopropylmethyl)amino]picolinoyl}-2-(5-(4-fluorophenyl)-1,2,3-triazol-1-yl)benzoic acid], the IC50 was 56 nM. Still for that read-out and setting: the result for `O=C(c1ccc(-n2nncc2-c2ccccn2)c(C(=O)O)c1)c1ccc(N(CC2CC2)c2ccc(Cl)cc2)cn1` [17:6, 5-{5-[(4-Chlorophenyl)(cyclopropylmethyl)amino]picolinoyl}-2-(5-(pyridin-2-yl)-1,2,3-triazol-1-yl)benzoic acid] reads 107 nM. On the same count and under the same terms, then `O=C(c1ccc(-n2nc(C(F)(F)F)cc2-c2ccccc2)c(C(=O)O)c1)c1ccc(N(CC2CC2)c2ccc(Cl)cc2)cn1` [18:1, 5-{5-[(4-Chlorophenyl)(cyclopropylmethyl)amino]picolinoyl}-2-(5-phenyl-3-trifluoro-methylpyrazol-1-yl)benzoic acid], with 297 nM.

For `CN(c1ccc(Cl)cc1)c1ccc(C(=O)c2ccc(-n3nc(-c4ccccc4)cc3C(F)(F)F)c(C(=O)O)c2)nc1` [18:2, 5-{5-[(4-Chlorophenyl)(methyl)amino]picolinoyl}-2-(3-phenyl-5-trifluoro-methylpyrazol-1-yl)benzoic acid], the IC50 is 104 nM.

With `CN(c1ccc(Cl)cc1)c1ccc(C(=O)c2ccc(-n3nc(C(F)(F)F)cc3-c3ccccc3)c(C(=O)O)c2)nc1` [18:3], the concentration for half-maximal inhibition (IC50) was found to be 177 nM. `O=C(c1ccc(-n2nc(-c3ccccc3)cc2C(F)(F)F)c(C(=O)O)c1)c1ccc(N(CC2CC2)c2ccc(Cl)cc2)cn1` [18:4, 5-{5-[(4-Chlorophenyl)(cyclopropylmethyl)amino]picolinoyl}-2-(3-phenyl-5-trifluoromethylpyrazol-1-yl)benzoic acid]: the IC50 was 65 nM. For `CN(c1ccc(Cl)cc1)c1ccc(C(=O)c2ccc(-n3nc(-c4cccc(Cl)c4)cc3C(F)(F)F)c(C(=O)O)c2)nc1` [18:5, 5-{5-[(4-Chlorophenyl)(methyl)amino]picolinoyl}-2-[3-(3-chlorophenyl)-5-trifluoromethylpyrazol-1-yl]benzoic acid], the IC50 came out at 116 nM. The same measure, in the same setting: the result for `CN(c1ccc(Cl)cc1)c1ccc(C(=O)c2ccc(-n3nc(-c4ccc(Cl)cc4)cc3C(F)(F)F)c(C(=O)O)c2)nc1` [18:6, 5-{5-[(4-Chlorophenyl)(methyl)amino]picolinoyl}-2-[3-(4-chlorophenyl)-5-trifluoromethylpyrazol-1-yl]benzoic acid] reads 115 nM; that for `CN(c1ccc(Cl)cc1)c1ccc(C(=O)c2ccc(-n3nc(C(F)(F)F)cc3-c3ccc(Cl)cc3)c(C(=O)O)c2)nc1` [18:7, 5-{5-[(4-Chlorophenyl)(methyl)amino]picolinoyl}-2-[5-(4-chlorophenyl)-3-trifluoromethylpyrazol-1-yl]benzoic acid], 250 nM.

For the compound `Cc1cn(-c2ccc(C(=O)c3ccc(N(C)c4ccc(Cl)cc4)cn3)cc2C(=O)O)c(-c2ccccc2)n1` [19:1, 5-{5-[(4-Chlorophenyl)(methyl)amino]picolinoyl}-2-(4-methyl-2-phenylimidazol-1-yl)benzoic acid], the IC50 was 235 nM.

For `CN(c1ccc(Cl)cc1)c1ccc(C(=O)c2ccc(-n3ccnc3-c3ccccc3)c(C(=O)O)c2)nc1` [19:2, 5-{5-[(4-Chlorophenyl)(methyl)amino]picolinoyl}-2-(2-phenylimidazol-1-yl)benzoic acid], the IC50 came to 486 nM. Regarding `CN(c1ccc(Cl)cc1)c1ccc(C(=O)c2ccc(-n3cccc3-c3cccc(Cl)c3)c(C(=O)O)c2)nc1` [20:1, 5-{5-[(4-Chlorophenyl)(methyl)amino]picolinoyl}-2-{2-(3-chlorophenyl)pyrrol-1-yl}benzoic acid], the IC50 is 163 nM.

For `CN(c1ccc(Cl)cc1)c1ccc(C(=O)c2ccc(-n3cccc3-c3ccccc3)c(C(=O)O)c2)nc1` [20:2, 5-{5-[(4-Chlorophenyl)(methyl)amino]picolinoyl}-2-(2-phenylpyrrol-1-yl)benzoic acid], the IC50 was determined as 64 nM. For the compound `CN(c1ccc(Cl)cc1)c1ccc(C(=O)c2ccc(-c3ccccc3C(F)(F)F)c(C(=O)O)c2)nc1` [21:1, 4-{5-[(4-Chlorophenyl)methylamino]pyridine-2-carbonyl}-2′-trifluoromethyl-biphenyl-2-carboxylic acid], the IC50 worked out at 138 nM. On to `CN(c1ccc(Cl)cc1)c1ccc(C(=O)c2ccc(-c3ccc(Cl)cc3Cl)c(C(=O)O)c2)nc1` [21:2, 2′,4′-Dichloro-4-{5-[(4-chlorophenyl)(methyl)amino]picolinoyl}biphenyl-2-carboxylic acid], for which the half-maximal inhibitory concentration (IC50) came out at 261 nM. `CN(c1ccc(Cl)cc1)c1ccc(C(=O)c2ccc(-c3ccccc3Cl)c(C(=O)O)c2)nc1` [21:3, 2′-Chloro-4-{5-[(4-chlorophenyl)(methyl)amino]picolinoyl}biphenyl-2-carboxylic acid]: the IC50 turned out to be 349 nM.

`CN(c1ccc(Cl)cc1)c1ccc(C(=O)c2ccc(-c3cccc(Cl)c3)c(C(=O)O)c2)nc1` [21:4, 3′-Chloro-4-{5-[(4-chlorophenyl)(methyl)amino]picolinoyl}biphenyl-2-carboxylic acid]: the IC50 was 704 nM. For the compound `CN(c1ccc(Cl)cc1)c1ccc(C(=O)c2ccc(-c3ccccc3OCC3CC3)c(C(=O)O)c2)nc1` [21:5, 4-{5-[(4-Chlorophenyl)(methyl)amino]picolinoyl}-2′-(cyclopropylmethoxy)-biphenyl-2-carboxylic acid], the IC50 amounted to 384 nM.

With `CN(c1ccc(Cl)cc1)c1ccc(C(=O)c2ccc(-c3ccccc3OC(F)(F)F)c(C(=O)O)c2)nc1` [21:6, 4-{5-[(4-chlorophenyl)(methyl)amino]picolinoyl}-2′-trifluoromethoxy-biphenyl-2-carboxylic acid], the IC50 was found to be 217 nM. `CN(c1ccc(Cl)cc1)c1ccc(C(=O)c2ccc(-c3cc(Cl)ccc3Cl)c(C(=O)O)c2)nc1` [21:7, 2′,5′-Dichloro-4-{5-[(4-chlorophenyl)(methyl)amino]picolinoyl}biphenyl-2-carboxylic acid]: the IC50 is 269 nM.

Turning to `CN(c1ccc(Cl)cc1)c1ccc(C(=O)c2ccc(-c3ccccc3-c3ccccc3)c(C(=O)O)c2)nc1` [21:8, 4-{5-[(4-Chlorophenyl)(methyl)amino]picolinoyl}[1,1′;2′,1″]terphenyl-2-carboxylic acid], the IC50 was 244 nM. As to `CN(c1ccc(Cl)cc1)c1ccc(C(=O)c2ccc(-c3cccc(-c4ccccc4)c3)c(C(=O)O)c2)nc1` [21:9, 4-{5-[(4-Chlorophenyl)(methyl)amino]picolinoyl}[1,1′;2′,1″]terphenyl-2-carboxylic acid[1,1′;3′,1″]terphenyl-2-carboxylic acid], the IC50 was found to be 511 nM.

Staying with this assay, now noted: 5 min; total concentration of title compound in the assay 10 μM.
`CN(c1ccc(Cl)cc1)c1ccc(C(=O)c2ccc(-n3nncc3-c3ccccc3)c(C(=O)O)c2)nc1` [17:1, 5-{5-[(4-Chlorophenyl)(methyl)amino]picolinoyl}-2-(5-phenyl-1,2,3-triazol-1-yl)-benzoic acid]: the inhibition at 10 µM stood at 98%. `O=C(c1ccc(-n2nncc2-c2ccccc2)c(C(=O)O)c1)c1ccc(N(CC2CC2)c2ccc(Cl)cc2)cn1` [17:3, 5-{5-[(4-Chlorophenyl)(cyclopropylmethyl)amino]picolinoyl}-2-(5-phenyl-1,2,3-triazol-1-yl)benzoic acid]: the inhibition at 10 µM amounted to 100%.
